Data from patent publication US5514713A, “Amidinophenol derivatives” (Ono Pharmaceutical Co., Ltd., priority 1993, dated 1996).
Where a name gives a salt, the structure may show the parent alone.

Assays:
trypsin = biological target: T1, trypsin (Bos taurus, UniProt P00760); assay: Inhibitory activity on trypsin; format: biochemical; conditions: trypsin derived from bovine pancreas; BAPNA substrate; pH 8.0; 30° C.; absorbance at 405 nm
T1 construct: from tissue; host or cells: bovine pancreas
T1 sequence (P00760 24-246): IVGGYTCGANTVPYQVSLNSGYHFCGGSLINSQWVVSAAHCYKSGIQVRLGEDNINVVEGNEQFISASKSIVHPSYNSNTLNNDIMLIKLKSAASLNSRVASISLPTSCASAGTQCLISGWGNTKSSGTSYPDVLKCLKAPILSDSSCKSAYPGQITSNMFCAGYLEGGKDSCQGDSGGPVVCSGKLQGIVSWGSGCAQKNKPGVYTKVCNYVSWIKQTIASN
Protocol: (2) Inhibitory activity on trypsin
To a mixture of a 0.2 M HEPES·sodium hydroxide buffer solution (pH 8.0, 100 μl) and distilled water (640 μl), were added solutions of a test compound in respective concentrations or water (10 μl), and a solution of 80 mU/ml trypsin (derived from bovine pancreas) (50 μl) and then the mixture was preincubated for one minute at 30° C. To the solution thus obtained was added 2.5 mM BAPNA (200 μl) and the mixture was incubated at 30° C. The absorbance at 405 nm was measured. Percentage (%) of the absorbance in the presence of a test compound was calculated when the absorbance in the absence thereof was regarded as 100%, and therefrom IC50 value was calculated.
(§1) In the methods hereinbefore described, 10PY-PC represents 3'-palmitoyl-2-(1-opyrenedecanoyl)-L-α-phosphatidylcholine, HEPES represents 4-(2-hydroxyethyl)-1-piperazineethanesulfonic acid, and BAPNA represents α-N-benzoyl-DL-arginine-p-nitroanilide hydrochloride.

PLA2 [1] = biological target: T2, PLA2 (Sus scrofa, UniProt P00592); assay: Inhibitory activity on PLA2; format: biochemical, hog
T2 construct: from tissue; host or cells: hog pancreas
Protocol: A reaction solution including 50 mM tris-HCl buffer (pH7.5, 874 μl; containing 100 mM sodium chloride, 1 mM EDTA), 1M calcium chloride (6 μl), 1% bovine serum albumin (10 μl) and 2.5 mM 10PY-PC (10 μl), was prepared. To the solution were added solutions of a test compound in respective concentrations or water (50 μl), and a solution of 10 mU/ml PLA2 (derived from hog pancreas) (50 μl). The appearance of fluorescence was measured (Ex=345 nm, Em=396 nm). Percentage of the strength of fluorescence in the presence of a test compound was calculated when the strength of that in the absence thereof was regarded as 100%, and therefrom IC50 value was calculated.
as §1

PLA2 [2] = conditions: Japanese Journal of Clinical Medicine, 48 (1), 165-172, 1990; cited from earlier work

T2 sequence (P00592 23-146): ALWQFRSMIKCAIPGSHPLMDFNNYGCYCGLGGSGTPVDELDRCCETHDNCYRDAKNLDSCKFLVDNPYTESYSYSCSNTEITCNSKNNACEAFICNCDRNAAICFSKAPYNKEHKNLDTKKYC

SMILES	IC50 (trypsin)	IC50 (PLA2 [1])	inhibitory activity on PLA2 (in words) (PLA2 [2])
CCOC(=O)C(C(=O)OCC)N(CCCOC)C(=O)/C(C)=C/c1ccc(C(=O)Oc2ccc(C(=N)N)cc2)cc1 [1(b), p-(p-Amidinophenoxycarbonyl)-α-methylcinnamic acid N-1,1-bis(ethoxycarbonyl)methyl-N-3-methoxypropylamide acetate]	170 nM	124 µM	–
CCOC(=O)CN(CCCOC)C(=O)/C(C)=C/c1ccc(C(=O)Oc2ccc(C(=N)N)cc2)cc1 [Example 1(a), acetate]	253 nM	106 µM	–
CCOC(=O)CCN(CCCOC)C(=O)/C(C)=C/c1ccc(C(=O)Oc2ccc(C(=N)N)cc2)cc1 [Example 1, p-(p-Amidinophenoxycarbonyl)-α-methylcinnamic acid N-2-ethoxycarbonylethyl-N-3-methoxypropylamide hydrochloride]	136 nM	107 µM	–
COCCCN(CC(=O)O)C(=O)/C(C)=C/c1ccc(C(=O)Oc2ccc(C(=N)N)cc2)cc1 [Example 3, p-(p-Amidinophenoxycarbonyl)-α-methylcinnamic acid N-carboxylmethyl-N-3-methoxypropylamide methanesulfonate]	140 nM	–	–
CN(C)C(=O)COC(=O)Cc1ccc(OC(=O)c2ccc(NC(=N)N)cc2)cc1 [camostat mesylate]	–	–	inhibitory activity on PLA2
N=C(N)Nc1ccc(C(=O)Oc2ccc3cc(C(=N)N)ccc3c2)cc1 [nafamostat mesylate]	–	–	inhibitory activity on PLA2
